Experimental data: article PMC11145868, “Protein target similarity is positive predictor of in vitro antipathogenic activity: a drug repurposing strategy for Plasmodium falciparum” (Journal of Cheminformatics, 2024)
Structures can show the parent of a compound that is named as a salt. Where two headings read alike, the source gives them in different places.

How the values were obtained:
[1] = Mammalian cell cytotoxicity assay, HepG2 (CellTiter-Glo, 72 h); conditions: human, HepG2 cells
[2] = tested on: P. berghei-luciferase sporozoites; assay: microbe, parasite or virus in culture; format: cell-based, Plasmodium berghei; conditions: Plasmodium berghei, liver-stage parasites
P. falciparum Dd2-HLH [3] = assay: microbe, parasite or virus in culture; format: cell-based, Plasmodium falciparum; conditions: Plasmodium falciparum
P. falciparum Dd2-HLH [4] = assay: microbe, parasite or virus in culture; format: cell-based, Plasmodium falciparum; conditions: Plasmodium falciparum, read-out: Blood stage 72h EC50
[5] = Mammalian cell cytotoxicity assay, HEK293T (CellTiter-Glo, 72 h); conditions: human, HEK293T cells
[6] = HepG2, 48 hours in culture, read-out: Liver stage 48h EC50
[7] = DD2, 48 h, read-out: Blood stage 48h EC50
[8] = 48 h in culture, read-out: Liver 48 h EC50
[9] = DD2, Hec50, 48 h, read-out: Blood stage 48 h EC50
[10] = DD2, read-out: EC50 (antiplasmodial, quoted in discussion from Supplementary Table 1)

| SMILES | CC50 at 72 h [1] | EC50 [2, 6] | EC50 (P. falciparum Dd2-HLH [3]; [7]) | EC50 (P. falciparum Dd2-HLH [4]; DD2, 72 h) | CC50 at 72 h [5] | EC50 [2, 8] | EC50 (P. falciparum Dd2-HLH [3]; [9]) | EC50 (P. falciparum Dd2-HLH [3]; DD2, P. falciparum blood-stage parasites, 48 hours in culture, read-out: Blood stage 48h EC50) | EC50 (P. falciparum Dd2-HLH [3]; DD2, stage and incubation time not given, read-out: EC50 (antiplasmodial, quoted in discussion from Supplementary Table 1)) | EC50 (P. falciparum Dd2-HLH [4]; DD2, P. falciparum blood-stage parasites, 72 hours in culture) | EC50 (P. falciparum Dd2-HLH [3]; [10]) |
| --- | --- | --- | --- | --- | --- | --- | --- | --- | --- | --- | --- |
| COC(=O)[C@]12CCC(C)(C)C[C@H]1[C@H]1C(=O)C=C3[C@@]4(C)C=C(C#N)C(=O)C(C)(C)[C@@H]4CC[C@@]3(C)[C@]1(C)CC2 [Bardoxolone methyl] | 557 nM | 155 nM | 340 nM | 750 nM | 208 nM | – | – | – | – | – | – |
| O=C(NO)c1cnc(N2C[C@@H]3[C@H](C2)[C@H]3NCc2ccc3cc(F)ccc3n2)nc1 [CHR-3996] | 195 nM | 151 nM | 20 nM | 15 nM | 920 nM | – | – | – | – | – | – |
| CN(C)CCCN1c2ccccc2CCc2ccccc21 [Imipramine hydrochloride] | > 9950 nM | > 10000 nM | 180 nM | 963 nM | > 9950 nM | – | – | – | – | – | – |
| CC(=O)O[C@@]12CO[C@@H]1C[C@H](O)[C@@]1(C)C(=O)[C@H](O)C3=C(C)[C@@H](OC(=O)[C@H](O)[C@@H](NC(=O)OC(C)(C)C)c4ccccc4)C[C@@](O)([C@@H](OC(=O)c4ccccc4)[C@H]21)C3(C)C [Docetaxel] | 24 nM | 401 nM | 11 nM | 11 nM | > 9950 nM | – | – | – | – | – | – |
| CO[C@H]1C(=O)[C@]2(C)[C@@H](OC)C[C@H]3OC[C@@]3(OC(C)=O)[C@H]2[C@H](OC(=O)c2ccccc2)[C@]2(O)C[C@H](OC(=O)[C@H](O)[C@@H](NC(=O)OC(C)(C)C)c3ccccc3)C(C)=C1C2(C)C [Cabazitaxel, reference compound] | 784 nM | – | – | 8 nM | > 9950 nM | 43 nM | 6 nM | – | – | – | – |
| COC1=C(C)C(=O)C2=C(C1=O)[C@@H](COC(N)=O)[C@@]1(OC)[C@H]3N[C@H]3CN21 [mitomycin A, reference compound] | 32 nM | 1360 nM | – | – | 362 nM | – | – | 38 nM | 37.7 nM | 18 nM | – |
| COc1ccc(-c2ccc3ncc4c(c3c2)n(-c2ccc(N3CCNCC3)c(C(F)(F)F)c2)c(=O)n4C)cn1 [NVP-BGT226, reference compound] | 3 nM | 1 nM | 1 nM | 6 nM | 35 nM | 0.5 nM | 0.6 nM | – | – | – | – |
| CN(C)Cc1ccc(S(=O)(=O)n2ccc(/C=C/C(=O)NO)c2)cc1 [resminostat, reference compound] | 1200 nM | 7060 nM | – | 697 nM | 3550 nM | – | – | – | – | – | 431 nM |
| C/C(=C\c1csc(C)n1)[C@@H]1C[C@@H]2O[C@]2(C)CCC[C@H](C)[C@H](O)[C@@H](C)C(=O)C(C)(C)[C@@H](O)CC(=O)N1 [Ixabepilone] | 7 nM | 867 nM | 42 nM | – | 15 nM | – | – | – | – | – | – |
| CCCCN(CCCC)CCC(O)c1cc2c(Cl)cc(Cl)cc2c2cc(C(F)(F)F)ccc12 (stereo not drawn) [Halofantrine HCl] | > 9950 nM | 1880 nM | – | 1 nM | > 9950 nM | – | – | – | – | – | – |
| c1cc(-c2nc3ccc(-c4ccc5nc(-c6ccncc6)[nH]c5c4)cc3[nH]2)ccn1 [Ridinilazole] | 3110 nM | 215 nM | – | 90 nM | > 9950 nM | – | – | – | – | – | – |
| COc1ncc(-c2ccc3nccc(-c4ccnnc4)c3c2)cc1NS(=O)(=O)c1ccc(F)cc1F [omipalisib, reference compound] | – | 230 nM | – | 158 nM | 46 nM | – | – | – | – | – | 159 nM |
| COc1cccc2c1C(=O)c1c(O)c3c(c(O)c1C2=O)C[C@@](O)(C(=O)CO)C[C@@H]3O[C@H]1C[C@H](N)[C@@H](O)[C@H](C)O1 [Epirubicin HCl] | – | 1480 nM | 271 nM | 366 nM | 103 nM | – | – | – | – | – | – |
| CC(C)C(=O)OCC(=O)[C@@]12O[C@H](C3CCCCC3)O[C@@H]1C[C@H]1[C@@H]3CCC4=CC(=O)C=C[C@]4(C)[C@H]3[C@@H](O)C[C@@]12C [Ciclesonide] | > 9950 nM | 3330 nM | 199 nM | 661 nM | – | – | – | – | – | – | – |
| CN1CCN(C2CCN(C(=O)Nc3cc(Oc4ccc(NC(=O)C5(C(=O)Nc6ccc(F)cc6)CC5)c(F)c4)ccn3)CC2)CC1 [Golvatinib] | – | 2840 nM | 738 nM | 1020 nM | 4360 nM | – | – | – | – | – | – |
| COc1cc2c(Oc3ccc(NC(=O)C4(C(=O)Nc5ccc(F)cc5)CC4)cc3F)ccnc2cc1OCCCN1CCOCC1 [Foretinib] | – | 6050 nM | 139 nM | 859 nM | 2370 nM | – | – | – | – | – | – |
| CCc1cc2c(cc1CC)CC(NC[C@H](O)c1ccc(O)c3[nH]c(=O)ccc13)C2 [Indacaterol maleate] | – | 3110 nM | 682 nM | 951 nM | > 9950 nM | – | – | – | – | – | – |
| CCN(CC)CC[n+]1ccc2c(C)c3[nH]c4ccc(O)cc4c3c(C)c2c1 [Datelliptium Chloride] | 505 nM | > 10000 nM | – | 193 nM | 4690 nM | – | – | – | – | – | – |
| CN(C)c1ccc(C(=C2C=CC(=[N+](C)C)C=C2)c2ccc(N(C)C)cc2)cc1 [Gentian violet] | – | 214 nM | 104 nM | 456 nM | 136 nM | – | – | – | – | – | – |
| CN(C)Cc1c(C(=O)NCCOc2ccc(C(=O)NO)cc2)oc2ccccc12 [Abexinostat] | – | 1190 nM | 51 nM | 91 nM | 376 nM | – | – | – | – | – | – |
| CC[C@H](C(=O)N1CCCC[C@H]1C(=O)O[C@H](CCc1ccc(OC)c(OC)c1)c1cccc(OCC(=O)NCCNC(=O)COc2cccc([C@@H](CCc3ccc(OC)c(OC)c3)OC(=O)[C@@H]3CCCCN3C(=O)[C@@H](CC)c3cc(OC)c(OC)c(OC)c3)c2)c1)c1cc(OC)c(OC)c(OC)c1 [Rimiducid] | – | > 10000 nM | 59 nM | 411 nM | > 9950 nM | – | – | – | – | – | – |
| CN(C)c1ccc2nc3ccc(=[N+](C)C)cc-3sc2c1 [Methylthioninium Chloride] | – | 1050 nM | 67 nM | 118 nM | 1770 nM | – | – | – | – | – | – |
| C[C@@H](Oc1ccc2[nH]nc(/C=C/c3cnn(CCO)c3)c2c1)c1c(Cl)cncc1Cl [LY-2874455] | – | 2360 nM | 512 nM | 733 nM | 875 nM | – | – | – | – | – | – |
| O=C(CCCCCCNC(=O)c1cnc(N(c2ccccc2)c2ccccc2)nc1)NO [Ricolinostat] | – | 4370 nM | 555 nM | 770 nM | > 9950 nM | – | – | – | – | – | – |
| CC(C)(C)NC[C@H](O)COc1ccccc1C1CCCC1 [Penbutolol] | – | 20000 nM | 418 nM | 980 nM | > 9950 nM | – | – | – | – | – | – |
| CC(=O)Nc1cccc(-n2c(=O)n(C3CC3)c(=O)c3c(Nc4ccc(I)cc4F)n(C)c(=O)c(C)c32)c1 [Trametinib dimethyl sulfoxide] | 119 nM | – | 160 nM | 300 nM | > 9950 nM | – | – | – | – | – | – |
| FC(F)c1nc2ccccc2n1-c1nc(N2CCOCC2)nc(N2CCOCC2)n1 [ZSTK-474] | – | 973 nM | 238 nM | 841 nM | 762 nM | – | – | – | – | – | – |
| C=C[C@H]1C[N@@]2CC[C@H]1C[C@@H]2[C@@H](O)c1ccnc2ccc(OC)cc12 [Quinidine] | – | > 10000 nM | 41 nM | 84 nM | > 9950 nM | – | – | – | – | – | – |
